Results published in US20150105252A1, “SUBSTITUTED PYRAZOLES AS HERBICIDES” (E I DU PONT DE NEMOURS AND COMPANY, priority 2013, published 2015).

Legend:
foxtail, giant [1] = experiment: Test A postemergence; format: in vivo, Setaria faberii; conditions: Postemergence
Summary of the method: (§1)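 After sowing in a sand–loam mix, pots received compound preemergence by directed soil spray, or postemergence once plants reached the one- to two-leaf stage (2–10 cm). Formulation contained surfactant in a non-phytotoxic solvent. Injury was scored visually after ~10 greenhouse days, 0–100 scale.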

velvetleaf [2] = experiment: Test A postemergence; format: in vivo, Abutilon theophrasti; conditions: Postemergence
Summary of the method: as §1

wheat [3] = experiment: Test A postemergence; format: in vivo, Triticum aestivum; conditions: Postemergence
Summary of the method: as §1

corn [4] = experiment: Test A postemergence; format: in vivo, Zea mays; conditions: Postemergence
Summary of the method: as §1

galium [5] = experiment: Test C preemergence; format: in vivo, Galium aparine
Summary of the method: (§2)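 In this greenhouse assay, seeded soil (loam plus sand) or emerged seedlings in peat-vermiculite medium were treated with formulated compound. Roughly two weeks later (13–15 days), each species was scored visually relative to controls, from 0 for no effect to 100 for complete control.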

corn [6] = experiment: Test C preemergence; format: in vivo, Zea mays
Summary of the method: as §2

foxtail, giant [7] = experiment: Test C preemergence; format: in vivo, Setaria faberii
Summary of the method: as §2

soybean = experiment: Test C preemergence; format: in vivo, Glycine max
Summary of the method: as §2

waterhemp = experiment: Test C preemergence; format: in vivo, Amaranthus rudis
Summary of the method: as §2

wheat [8] = experiment: Test C postemergence; format: in vivo, Triticum aestivum; conditions: postemergence; for Plant response rating, Wheat: 250 g ai/ha, scale 0 to 100 (0 no effect, 100 complete control); for Wheat plant response rating: scale 0 to 100
Summary of the method: as §2

galium [9] = experiment: Test C postemergence; format: in vivo, Galium aparine; conditions: for Plant response rating (scale of 0 to 100 where 0 is no effect and 100 is complete control), Galium: Postemergence, 31 g ai/ha, visually evaluated after 13 to 15 days; for Galium plant response rating / Plant response rating, Galium: postemergence; for Galium plant response rating: 62 g ai/ha, scale 0 to 100
Summary of the method: as §2

foxtail, giant [10] = experiment: Test C postemergence; format: in vivo, Setaria faberii; conditions: for Plant response rating (scale of 0 to 100 where 0 is no effect and 100 is complete control), Foxtail, Giant: Postemergence, 31 g ai/ha, visually evaluated after 13 to 15 days; for Foxtail, Giant plant response rating / Plant response rating, Foxtail, Giant: postemergence; for Foxtail, Giant plant response rating: 62 g ai/ha, scale 0 to 100
Summary of the method: as §2

morningglory = experiment: Test C postemergence; format: in vivo, Ipomoea coccinea; conditions: for Plant response rating (scale of 0 to 100 where 0 is no effect and 100 is complete control), Morningglory: Postemergence, 31 g ai/ha, visually evaluated after 13 to 15 days; for Morningglory plant response rating / Plant response rating, Morningglory: postemergence; for Morningglory plant response rating: 62 g ai/ha, scale 0 to 100
Summary of the method: as §2

barnyardgrass = experiment: Test C postemergence; format: in vivo, Echinochloa crus-galli; conditions: for Plant response rating (scale of 0 to 100 where 0 is no effect and 100 is complete control), Barnyardgrass: Postemergence, 31 g ai/ha, visually evaluated after 13 to 15 days; for Barnyardgrass plant response rating / Plant response rating, Barnyardgrass: postemergence; for Barnyardgrass plant response rating: 62 g ai/ha, scale 0 to 100
Summary of the method: as §2

kochia = experiment: Test C postemergence; format: in vivo, Kochia scoparia; conditions: for Plant response rating (scale of 0 to 100 where 0 is no effect and 100 is complete control), Kochia: Postemergence, 31 g ai/ha, visually evaluated after 13 to 15 days; for Kochia plant response rating / Plant response rating, Kochia: postemergence; for Kochia plant response rating: 62 g ai/ha, scale 0 to 100
Summary of the method: as §2

velvetleaf [11] = experiment: Test C postemergence; format: in vivo, Abutilon theophrasti; conditions: postemergence; for Plant response rating, Velvetleaf: 250 g ai/ha, scale 0 to 100 (0 no effect, 100 complete control); for Velvetleaf plant response rating: scale 0 to 100
Summary of the method: as §2

[12] = 125 g ai/ha, 0 to 100 scale, 0 no effect, 100 complete control
[13] = 500 g ai/ha, 0 to 100 scale (0 no effect, 100 complete control)
[14] = Preemergence, rate head not shown (block before 16 g ai/ha), scale 0 to 100
[15] = preemergence, 62 g ai/ha, scale 0 to 100 (0 no effect, 100 complete control), 13 to 15 days
[16] = preemergence, 125 g ai/ha, 13 to 15 days, scale 0 to 100, 0 = no effect, 100 = complete control
[17] = preemergence, 250 g ai/ha, scale 0 to 100, 0 is no effect, 100 is complete control
[18] = Preemergence, rate head not shown (block before 16 g ai/ha), scale 0 to 100, 100 is complete control
[19] = 250 g ai/ha, scale 0 to 100 (0 no effect, 100 complete control)
[20] = 125 g ai/ha, scale 0 to 100, 0 no effect, 100 complete control

## CCc1cc(C(=O)NC2CC2)nn1Cc1ccnc(Br)c1 [Compound 220]
foxtail, giant [1]; [12]
  Foxtail, Giant plant response rating: 90
foxtail, giant [1]; [13]
  Foxtail, Giant plant response rating: 100
Velvetleaf [2]; [12]
  Velvetleaf plant response rating: 70
Velvetleaf [2]; [13]
  Velvetleaf plant response rating: 80
Wheat [3]; [12]
  Wheat plant response rating: 0
Wheat [3]; [13]
  Wheat plant response rating: 90
Corn [4]; [12]
  Corn plant response rating: 40
Corn [4]; [13]
  Corn plant response rating: 90
Galium [5]; [14]
  Plant response rating, Galium: 5
Galium [5]; [15]
  Galium plant response rating: 80
Galium [5]; [16]
  Plant response rating, Galium: 80
Galium [5]; [17]
  Galium plant response rating: 98
Corn [6]; [18]
  Plant response rating, Corn: 0
Corn [6]; [15]
  Corn plant response rating: 0
Corn [6]; [16]
  Plant response rating, Corn: 5
Corn [6]; [17]
  Corn plant response rating: 40
foxtail, giant [7]; [14]
  Plant response rating, Foxtail, Giant: 10
foxtail, giant [7]; [15]
  Foxtail, Giant plant response rating: 75
foxtail, giant [7]; [16]
  Plant response rating, Foxtail, Giant: 100
foxtail, giant [7]; [17]
  Foxtail, Giant plant response rating: 100
soybean; [14]
  Plant response rating, Soybean: 10
soybean; [15]
  Soybean plant response rating: 10
soybean; [16]
  Plant response rating, Soybean: 35
soybean; [17]
  Soybean plant response rating: 60
waterhemp; [14]
  Plant response rating, Waterhemp: 75
waterhemp; [15]
  Waterhemp plant response rating: 95
waterhemp; [16]
  Plant response rating, Waterhemp: 100
waterhemp; [17]
  Waterhemp plant response rating: 100
Wheat [8]
  Plant response rating, Wheat: 5
  Wheat plant response rating: 0
Galium [9]
  Plant response rating (scale of 0 to 100 where 0 is no effect and 100 is complete control), Galium: 50
  Galium plant response rating: 40
Galium [9]; [19]
  Plant response rating, Galium: 80
Galium [9]; [20]
  Plant response rating, Galium: 60
foxtail, giant [10]
  Plant response rating (scale of 0 to 100 where 0 is no effect and 100 is complete control), Foxtail, Giant: 0
  Foxtail, Giant plant response rating: 5
foxtail, giant [10]; [19]
  Plant response rating, Foxtail, Giant: 5
foxtail, giant [10]; [20]
  Plant response rating, Foxtail, Giant: 5
morningglory
  Plant response rating (scale of 0 to 100 where 0 is no effect and 100 is complete control), Morningglory: 10
  Morningglory plant response rating: 55
morningglory; [19]
  Plant response rating, Morningglory: 70
morningglory; [20]
  Plant response rating, Morningglory: 40
barnyardgrass
  Plant response rating (scale of 0 to 100 where 0 is no effect and 100 is complete control), Barnyardgrass: 0
  Barnyardgrass plant response rating: 0
barnyardgrass; [19]
  Plant response rating, Barnyardgrass: 15
barnyardgrass; [20]
  Plant response rating, Barnyardgrass: 10
kochia
  Plant response rating (scale of 0 to 100 where 0 is no effect and 100 is complete control), Kochia: 80
  Kochia plant response rating: 85
kochia; [19]
  Plant response rating, Kochia: 90
kochia; [20]
  Plant response rating, Kochia: 90
Velvetleaf [11]
  Plant response rating, Velvetleaf: 40
  Velvetleaf plant response rating: 45

## CCc1cc(C(=O)NCC(F)(F)F)nn1Cc1ccnc(Br)c1 [Compound 224]
foxtail, giant [1]; [12]
  Foxtail, Giant plant response rating: 90
foxtail, giant [1]; [13]
  Foxtail, Giant plant response rating: 100
Velvetleaf [2]; [12]
  Velvetleaf plant response rating: 60
Velvetleaf [2]; [13]
  Velvetleaf plant response rating: 100
Wheat [3]; [12]
  Wheat plant response rating: 30
Wheat [3]; [13]
  Wheat plant response rating: 90
Corn [4]; [12]
  Corn plant response rating: 60
Corn [4]; [13]
  Corn plant response rating: 90
Galium [5]; [14]
  Plant response rating, Galium: 80
Galium [5]; [15]
  Galium plant response rating: 80
Galium [5]; [16]
  Plant response rating, Galium: 100
Galium [5]; [17]
  Galium plant response rating: 90
Corn [6]; [18]
  Plant response rating, Corn: 0
Corn [6]; [15]
  Corn plant response rating: 5
Corn [6]; [16]
  Plant response rating, Corn: 15
Corn [6]; [17]
  Corn plant response rating: 60
foxtail, giant [7]; [14]
  Plant response rating, Foxtail, Giant: 95
foxtail, giant [7]; [15]
  Foxtail, Giant plant response rating: 100
foxtail, giant [7]; [16]
  Plant response rating, Foxtail, Giant: 100
foxtail, giant [7]; [17]
  Foxtail, Giant plant response rating: 100
soybean; [14]
  Plant response rating, Soybean: 10
soybean; [15]
  Soybean plant response rating: 40
soybean; [16]
  Plant response rating, Soybean: 65
soybean; [17]
  Soybean plant response rating: 90
waterhemp; [14]
  Plant response rating, Waterhemp: 100
waterhemp; [15]
  Waterhemp plant response rating: 100
waterhemp; [16]
  Plant response rating, Waterhemp: 100
waterhemp; [17]
  Waterhemp plant response rating: 100
Wheat [8]
  Plant response rating, Wheat: 5
  Wheat plant response rating: 0
Galium [9]
  Plant response rating (scale of 0 to 100 where 0 is no effect and 100 is complete control), Galium: 50
  Galium plant response rating: 55
Galium [9]; [19]
  Plant response rating, Galium: 90
Galium [9]; [20]
  Plant response rating, Galium: 40
foxtail, giant [10]
  Plant response rating (scale of 0 to 100 where 0 is no effect and 100 is complete control), Foxtail, Giant: 5
  Foxtail, Giant plant response rating: 5
foxtail, giant [10]; [19]
  Plant response rating, Foxtail, Giant: 5
foxtail, giant [10]; [20]
  Plant response rating, Foxtail, Giant: 5
morningglory
  Plant response rating (scale of 0 to 100 where 0 is no effect and 100 is complete control), Morningglory: 25
  Morningglory plant response rating: 20
morningglory; [19]
  Plant response rating, Morningglory: 65
morningglory; [20]
  Plant response rating, Morningglory: 25
barnyardgrass
  Plant response rating (scale of 0 to 100 where 0 is no effect and 100 is complete control), Barnyardgrass: 0
  Barnyardgrass plant response rating: 10
barnyardgrass; [19]
  Plant response rating, Barnyardgrass: 10
barnyardgrass; [20]
  Plant response rating, Barnyardgrass: 10
kochia
  Plant response rating (scale of 0 to 100 where 0 is no effect and 100 is complete control), Kochia: 80
  Kochia plant response rating: 85
kochia; [19]
  Plant response rating, Kochia: 90
kochia; [20]
  Plant response rating, Kochia: 90
Velvetleaf [11]
  Plant response rating, Velvetleaf: 25
  Velvetleaf plant response rating: 20
